{
  "source": "patent US20240122885A1",
  "about": "“Endometriosis-Related Methods and Compositions” (The Regents of the University of California, priority 2021, published 2024)",
  "test_system": "rat model of endometriosis",
  "test": "behavioral assessment of vaginal nociception (escape response) in rat model of endometriosis",
  "format": "in vivo",
  "settings": "30 mg/kg/day p.o.; for Post-Treatment period (PT) median escape response: four weeks of treatment, proestrus",
  "text": "Baseline vaginal nociception was first assessed in rats. Then, endometriosis was induced when rats were four months of age by suturing uterine fragments within the peritoneal cavity to generate ectopic endometrium (lesions). […] In this model, four (2 mm×2 mm) pieces of uterine horn are auto transplanted onto cascading mesenteric arteries within the pelvic cavity of rats that are hormonally and immunologically intact. The present model avoids ovariectomy followed by estradiol supplementation that is common in most mouse models which eliminates the natural estradiol variations within the estrous cycle and the ability to assess drug treatment effects on fertility.\nBehavioral assessment of vaginal nociception: Volumes of water (0.01, 0.15, 0.30, 0.40, 0.55, 0.70, 0.80, and 0.90 mL) were delivered via a vaginal balloon to the rat's vaginal canal. When the previously trained rat detects this stimulus as noxious, she will poke her head into a tube to break an infrared (IR) beam. This beam break terminates the stimulus (balloon deflates). During each testing session, eight different distention volumes were delivered randomly three times each ˜60 seconds apart. The maximum latency of 15 seconds is considered to be no response. The experimenter was blinded to the volumes being delivered.\nData analyses of behavioral results: Percent escape responses as a function of distention volume were measured in each session. For each rat, the escape response percentages as a function of distention volume from all sessions for each testing period were determined. The median escape response percentage and interquartile range (IQR) for all rats from each testing period was determined.\nStatistical analyses were performed using Mann Whitney U test, and p-values were corrected using the Bonferroni correction method.",
  "data": [
    {"smiles": "CC(C(=O)O)c1cccc(Oc2ccccc2)c1", "note": "(stereo not shown) [fenoprofen]", "values": [
      {"measurement": "escape responses between the baseline period and the post-treatment period", "setting": "any volume of water delivered, Mann Whitney U test, Bonferroni-corrected threshold 0.05", "result": "No statistically significant difference"},
      {"measurement": "Post-Treatment period (PT) median escape response", "setting": "volume 0.01 mL", "result": 0, "unit": "%"},
      {"measurement": "Post-Treatment period (PT) median escape response", "setting": "volume 0.15 mL", "result": 0, "unit": "%"},
      {"measurement": "Post-Treatment period (PT) median escape response", "setting": "volume 0.3 mL", "result": 0, "unit": "%"},
      {"measurement": "Post-Treatment period (PT) median escape response", "setting": "volume 0.4 mL", "result": 16.65, "unit": "%"},
      {"measurement": "Post-Treatment period (PT) median escape response", "setting": "volume 0.55 mL", "result": 33.3, "unit": "%"},
      {"measurement": "Post-Treatment period (PT) median escape response", "setting": "volume 0.7 mL", "result": 66.6, "unit": "%"},
      {"measurement": "Post-Treatment period (PT) median escape response", "setting": "volume 0.8 mL", "result": 100, "unit": "%"},
      {"measurement": "Post-Treatment period (PT) median escape response", "setting": "volume 0.9 mL", "result": 100, "unit": "%"},
      {"measurement": "escape responses during the post-treatment period compared to the post-endo surgery period", "setting": "volumes of 0.15, 0.3, 0.4, 0.55, 0.7 and 0.8 mL, Mann Whitney U test, Bonferroni-corrected threshold 0.05", "result": "significantly decreased"}
    ]}
  ]
}
